Results: the SangsterLogP compilation

Assay: method code SF-AS, from DOI: 10.1021/jm00244a011, PMID: 808606

| logP | SMILES |
| --- | --- |
| 0.6 | O=C(O)CCCCN1C(=O)C=CC1=O |
| -0.14 | O=C(O)CN1C(=O)C=CC1=O |
| 0.4 | O=C(O)CCCN1C(=O)C=CC1=O |
| 0.49 | CCOC(=O)CN1C(=O)C=CC1=O |
| 0.41 | CCOC(=O)CCN1C(=O)C=CC1=O |
| 0.67 | CCOC(=O)CCCN1C(=O)C=CC1=O |
| 0.04 | O=C(O)CCN1C(=O)C=CC1=O |
| 1.5 | CCOC(=O)CCCCCN1C(=O)C=CC1=O |
| 1.99 | O=C(O)CCCCCCCN1C(=O)C=CC1=O |
| 1.15 | O=C(O)CCCCCN1C(=O)C=CC1=O |
